Data from patent US9464056B2, “Fungicidal 4-methylanilino pyrazoles” (E. I. DU PONT DE NEMOURS AND COMPANY, priority 2012, dated 2016).

Tests used:
Botrytis cinerea = assay: Test A: preventive spray on tomato seedlings, Botrytis cinerea (tomato Botrytis), visual disease rating; assay type: in vivo; conditions: 100 = 100% disease control, 0 = no disease control relative to controls
Source text: General protocol for preparing test suspensions for Tests A-H: the test compounds were first dissolved in acetone in an amount equal to 3% of the final volume and then suspended at the desired concentration (in ppm) in acetone and purified water (50/50 mix by volume) containing 250 ppm of the surfactant Trem® 014 (polyhydric alcohol esters). The resulting test suspensions were then used in Tests A-F. Spraying a 40 ppm test suspension to the point of run-off on the test plants was the equivalent of a rate of 160 g/ha. Unless otherwise indicated, the rating values indicate a 40 ppm test suspension was used. The test suspension was sprayed to the point of run-off on tomato seedlings. The following day the seedlings were inoculated with a spore suspension of Botrytis cinerea (the causal agent of tomato Botrytis) and incubated in saturated atmosphere at 20° C. for 48 h, and then moved to a growth chamber at 27° C. for 3 days, after which time visual disease ratings were made. Results for Tests A-F are given in Table A. In the Table, a rating of 100 indicates 100% disease control and a rating of 0 indicates no disease control (relative to the controls). A dash (-) indicates no test results.

Septoria nodorum = assay: Test C: preventive spray on wheat seedlings, Septoria nodorum (Septoria glume blotch), visual disease rating; assay type: in vivo; conditions: Parastagonospora nodorum, topical, 264 h, 100 = 100% disease control, 0 = no disease control relative to controls
Source text: General protocol for preparing test suspensions for Tests A-H: the test compounds were first dissolved in acetone in an amount equal to 3% of the final volume and then suspended at the desired concentration (in ppm) in acetone and purified water (50/50 mix by volume) containing 250 ppm of the surfactant Trem® 014 (polyhydric alcohol esters). The resulting test suspensions were then used in Tests A-F. Spraying a 40 ppm test suspension to the point of run-off on the test plants was the equivalent of a rate of 160 g/ha. Unless otherwise indicated, the rating values indicate a 40 ppm test suspension was used. The test suspension was sprayed to the point of run-off on wheat seedlings. The following day the seedlings were inoculated with a spore suspension of Septoria nodorum (the causal agent of Septoria glume blotch) and incubated in a saturated atmosphere at 20° C. for 48 h, and then moved to a growth chamber at 20° C. for 9 days, after which time visual disease ratings were made. Results for Tests A-F are given in Table A. In the Table, a rating of 100 indicates 100% disease control and a rating of 0 indicates no disease control (relative to the controls). A dash (-) indicates no test results.

Septoria tritici = assay: Test D: preventive spray on wheat seedlings, Septoria tritici (wheat leaf blotch), visual disease rating; assay type: in vivo; conditions: Zymoseptoria tritici, topical, 504 h, 100 = 100% disease control, 0 = no disease control relative to controls
Source text: General protocol for preparing test suspensions for Tests A-H: the test compounds were first dissolved in acetone in an amount equal to 3% of the final volume and then suspended at the desired concentration (in ppm) in acetone and purified water (50/50 mix by volume) containing 250 ppm of the surfactant Trem® 014 (polyhydric alcohol esters). The resulting test suspensions were then used in Tests A-F. Spraying a 40 ppm test suspension to the point of run-off on the test plants was the equivalent of a rate of 160 g/ha. Unless otherwise indicated, the rating values indicate a 40 ppm test suspension was used. The test suspension was sprayed to the point of run-off on wheat seedlings. The following day the seedlings were inoculated with a spore suspension of Septoria tritici (the causal agent of wheat leaf blotch) and incubated in saturated atmosphere at 24° C. for 48 h, and then moved to a growth chamber at 20° C. for 19 days, after which time visual disease ratings were made. Results for Tests A-F are given in Table A. In the Table, a rating of 100 indicates 100% disease control and a rating of 0 indicates no disease control (relative to the controls). A dash (-) indicates no test results.

[1] = tested on: Puccinia recondita f. sp. tritici; assay: Test E2: preventive spray on wheat seedlings, Puccinia recondita f. sp. tritici (wheat leaf rust), visual disease rating; assay type: in vivo; conditions: topical, 192 h, 100 = 100% disease control, 0 = no disease control relative to controls
Source text: (§1) General protocol for preparing test suspensions for Tests A-H: the test compounds were first dissolved in acetone in an amount equal to 3% of the final volume and then suspended at the desired concentration (in ppm) in acetone and purified water (50/50 mix by volume) containing 250 ppm of the surfactant Trem® 014 (polyhydric alcohol esters). The resulting test suspensions were then used in Tests A-F. Spraying a 40 ppm test suspension to the point of run-off on the test plants was the equivalent of a rate of 160 g/ha. Unless otherwise indicated, the rating values indicate a 40 ppm test suspension was used. The test suspension was sprayed to the point of run-off on wheat seedlings. The following day the seedlings were inoculated with a spore suspension of Puccinia recondita f. sp. tritici (the causal agent of wheat leaf rust) and incubated in a saturated atmosphere at 20° C. for 24 h, and then moved to a growth chamber at 20° C. for 7 days, after which time visual disease ratings were made. Results for Tests A-F are given in Table A. In the Table, a rating of 100 indicates 100% disease control and a rating of 0 indicates no disease control (relative to the controls). A dash (-) indicates no test results.

[2] = tested on: Blumeria graminis f. sp. tritici; assay: Test F: preventive spray on wheat seedlings, Blumeria graminis f. sp. tritici (wheat powdery mildew), visual disease rating; assay type: in vivo; conditions: topical, 192 h, 100 = 100% disease control, 0 = no disease control relative to controls
Source text: as §1, with “spore dust” for “spore suspension”, “of Blumeria graminis” for “of Puccinia recondita”, “tritici (also known as Erysiphe graminis f. sp. tritici, the” for “tritici (the”, “wheat powdery mildew)” for “wheat leaf rust)”, “in” for “in a saturated atmosphere at 20° C. for 24 h, and then moved to”, “for 8” for “for 7”

melting point [°C] | SMILES | pest or weed control at 40 µg/mL (Botrytis cinerea) [%] | pest or weed control at 40 µg/mL (Septoria nodorum) [%] | pest or weed control at 40 µg/mL (Septoria tritici) [%] | pest or weed control at 40 µg/mL [1] [%] | pest or weed control at 40 µg/mL [2] [%]
191 to 192 | Cc1cc(Cl)c(Nc2c(-c3ccc(F)cc3Br)c(C)nn2C)c(Cl)c1 [Compound 15, 4-(2-bromo-4-fluorophenyl)-N-(2,6-dichloro-4-methylphenyl)-1,3-dimethyl-1H-pyrazol-5-amine] | 100 | 0 | 100 | 100 | 99
121 to 123 | Cc1cc(F)c(Nc2c(-c3ccc(F)cc3Cl)c(C)nn2C)c(F)c1 [Compound 10, 4-(2-chloro-4-fluorophenyl)-N-(2,6-difluoro-4-methylphenyl)-1,3-dimethyl-1H-pyrazol-5-amine] | 100 | 90 | 100 | 100 | 100
 | Cc1ccc(Nc2c(-c3ccc(F)cc3Br)c(C)nn2C)c(Cl)c1 [Compound 4, 4-(2-bromo-4-fluorophenyl)-N-(2-chloro-4-methylphenyl)-1,3-dimethyl-1H-pyrazol-5-amine] | 100 | 0 | 100 | 97 | 97
137 to 138 | Cc1cc(F)c(Nc2c(-c3ccc(F)cc3Cl)c(C)nn2C)c(Cl)c1 [Compound 12, N-(2-chloro-6-fluoro-4-methylphenyl)-4-(2-chloro-4-fluorophenyl)-1,3-dimethyl-1H-pyrazol-5-amine] |  |  |  |  | 
145 to 146 | Cc1cc(F)c(Nc2c(-c3ccc(F)cc3Br)c(C)nn2C)c(Cl)c1 [Compound 11, 4-(2-bromo-4-fluorophenyl)-N-(2-chloro-6-fluoro-4-methylphenyl)-1,3-dimethyl-1H-pyrazol-5-amine] |  |  |  |  | 
 | Cc1ccc(Nc2c(-c3ccc(F)cc3Cl)c(C)nn2C)c(Br)c1 [Compound 3, N-(2-bromo-4-methylphenyl)-4-(2-chloro-4-fluorophenyl)-1,3-dimethyl-1H-pyrazol-5-amine] | 99 | 0 | 100 | 99 | 96
143 to 144 | Cc1cc(F)c(Nc2c(-c3ccc(F)cc3F)c(C)nn2C)c(Br)c1 [Compound 8, N-(2-bromo-6-fluoro-4-methylphenyl)-4-(2,4-difluorophenyl)-1,3-dimethyl-1H-pyrazol-5-amine] | 100 | 97 | 100 | 100 | 100
 | Cc1ccc(Nc2c(-c3ccc(F)cc3Cl)c(C)nn2C)c(Cl)c1 [Compound 2, 4-(2-chloro-4-fluorophenyl)-N-(2-chloro-4-methylphenyl)-1,3-dimethyl-1H-pyrazol-5-amine] | 100 | 0 | 100 | 95 | 97
114 to 116 | Cc1cc(F)c(Nc2c(-c3ccc(F)cc3Br)c(C)nn2C)c(F)c1 [Compound 14, 4-(2-bromo-4-fluorophenyl)-N-(2,6-difluoro-4-methylphenyl)-1,3-dimethyl-1H-pyrazol-5-amine] | 100 | 86 | 100 | 100 | 100
147 to 149 | Cc1cc(Cl)c(Nc2c(-c3ccc(F)cc3F)c(C)nn2C)c(Cl)c1 [Compound 16, N-(2,6-dichloro-4-methylphenyl)-4-(2,4-difluorophenyl)-1,3-dimethyl-1H-pyrazol-5-amine] | 100 | 97 | 73 | 100 | 99
 | Cc1ccc(Nc2c(-c3ccc(F)cc3Br)c(C)nn2C)c(Br)c1 [Compound 5, 4-(2-bromo-4-fluorophenyl)-N-(2-bromo-4-methylphenyl)-1,3-dimethyl-1H-pyrazol-5-amine] | 99 | 0 | 100 | 97 | 97
143 to 145 | Cc1cc(F)c(Nc2c(-c3ccc(F)cc3Br)c(C)nn2C)c(Br)c1 [Compound 7, N-(2-bromo-6-fluoro-4-methylphenyl)-4-(2-bromo-4-fluorophenyl)-1,3-dimethyl-1H-pyrazol-5-amine] | 100 | 99 | 100 | 100 | 100
188 to 189 | Cc1cc(Cl)c(Nc2c(-c3ccc(F)cc3Cl)c(C)nn2C)c(Cl)c1 [Compound 13, 4-(2-chloro-4-fluorophenyl)-N-(2,6-dichloro-4-methylphenyl)-1,3-dimethyl-1H-pyrazol-5-amine] | 100 | 0 | 100 | 100 | 100
 | Cc1ccc(Nc2c(-c3ccc(F)cc3Cl)c(C)nn2C)c(F)c1 [Compound 6, 4-(2-chloro-4-fluorophenyl)-N-(2-fluoro-4-methylphenyl)-1,3-dimethyl-1H-pyrazol-5-amine] | 99 | 0 | 100 | 0 | 100
